Legend:
[1] = test system: primary cultures of cerebral cortical astrocytes; assay: Lactate release assay in astrocyte cultures; type: cell-based, mouse; conditions: various concentrations, 30 minutes after application
Description: Primary cultures of cerebral cortical astrocytes were prepared from Swiss albino newborn mice (1-2 days old) as described [Pellerin L, Magistretti P J. Glutamate uptake into astrocytes stimulates aerobic glycolysis: a mechanism coupling neuronal activity to glucose utilization. Proc Natl Acad Sci USA. 1994 Oct. 25; 91(22):10625-9]. This procedure yields cultures that are >95% immunoreactive for glial fibrillary acidic protein.
Astrocytes are emerging as having significant roles in several homeostatic processes in the brain [Zuchero J B, Barres B A. Glia in mammalian development and disease. Development 2015 142: 3805-3809]. To evaluate the potential effects of Compound A (10 μM) on astrocyte metabolism, the uptake of glucose and lactate release were measured 30 minutes after application of compounds to the culture (FIGS. 2 and 3).
Lactate release into the medium was measured enzymatically by a modification of the enzymatic spectrophotometric method of Rosenberg and Rush [Rosenberg J C, Rush B F. An enzymatic-spectrophotometric determination of pyruvic and lactic acid in blood. Methodologic aspects. Clin Chem. 1966; 12(5):299-307.]. Incubations were carried out exactly as described for [3H]2DG uptake experiments except for the fact that no tracer and no phenol red (which otherwise interferes with the spectrophotometric determination of lactate) were present in the incubation medium. […]

TrkB receptor = assay: Activation of TrkB receptor: phosphorylation in cortical neurons (WES capillary immunoassay); type: cell-based, mouse
Description: On the day of preparation (DIV1) cortical neurons were seeded on poly-D-lysine pre-coated 6-well plates at a density of 1.25*10^6 cells per well and cultured at 37° C.; 95% humidity and 5% CO2 until […] with a half medium exchange on DIV4-6. On DIV10 cells are treated with test item TI (SND118) and control Rh (7,8DHF) at different concentrations for 15 min. The experiment was carried out with n=6 technical replicates per condition, vehicle treated cells served as control. Cells were lysed in 150 μL cold RIPA buffer [50 mM Tris pH 7.4, 1% Nonidet P40, 0.25% Na-deoxy-cholate, 150 mM NaCl, 1 mM EDTA supplemented with freshly added 1 μM NaF, 0.2 mM Na-ortho-vanadate, 80 μM Glycerophosphate, protease (Calbiochem) and phosphatase (Sigma) inhibitor cocktail.
Phosphorylation of the TrkB receptor was detected using the following rabbit anti-Tyr specific antibodies: anti-TrkB Y515, Y706/707 and Y816 and compared with total TrkB detected with anti-TrkB antibody (Abcam). Antibody dilutions and protein amounts were optimized for signal specificity.
Automated separation and immunostaining of total and phospho TrkB was carried out using a capillary-based immunoassay, WES™ (Proteinsimple®). Samples were applied to a 25 capillary cartridge with a 2 to 440 kDa matrix, at an optimized total protein concentration. Sample loading, separation, immunoprobing, washing, detection and quantitative data analysis were performed automatically by WES™ Western system (Compass software V 4.0.0). The areas under the curve were used for the analysis and the phosphorylated versus vehicle or total TrkB signal ratio was calculated and used for statistics.

[2] = test system: cortical neurons with MPP+ lesion; assay: MPP+ induced apoptosis in cortical neurons (YO-PRO-1); type: cell-based, mouse; conditions: 0.5 and 1 μM, 24 h MPP+ lesion
Description: Mouse cortical neurons were prepared as described. At DIV8 cells were treated with the test and control MK801 compounds for 1 h, before the addition of MPP+(Sigma, D048) at a final concentration of 100-200 μM. The experiment was carried out with n=6 technical replicates per condition, vehicle and MPP+ alone controls were included. After 8 h determination of ROS was conducted and after 24 h of MPP+ lesion on DIV9 cells were subject to the apoptosis measurement. Apoptosis was determined using YO-PRO™-1 Iodide (Invitrogen; Y3603). Part of supernatant of the cultivated cells was removed and 10 μL of a 50 μM YO-PRO 1 solution in PBS is added to the remaining 90 μL to result in a final concentration of 5 μM YO-PRO 1 in well. Incubation for 15 min in the incubator at 37° C. was performed (light protected) followed by discarding the supernatant. 140 μL PBS was added to each well and the fluorescence was measured using a plate-reader (Cytation 5, BioTek) at excitation wavelength 485 nm to Emission wavelength 535 nm.

IL-6 = assay: LPS stimulation of BV-2 microglia: IL-6; type: cell-based, murine; conditions: between 0.3 and 3 μM, BV2, LPS 500 ng/ml, 24 h
Description: (§1) The murine microglial cell line BV-2 was grown in DMEM medium supplemented with 10% FCS, 1% penicillin/streptomycin and 2 mM L-glutamine (culture medium). For LPS stimulation assay, 10000 BV-2 cells per well (uncoated 96 well plates) were plated and after 24 hours, medium was changed to serum-free treatment medium (DMEM, 2 mM L-glutamine) and cells were maintained in treatment medium for the remaining culture period. 1 h after changing cells to treatment medium, the test items were added 1 hour before LPS stimulation (Sigma-Aldrich; L6529; 1 mg/ml stock in ddH2O, final concentration in well: 500 ng/ml (dilutions in medium)). Cells treated with vehicle, cells treated with LPS alone, as well as cells treated with LPS plus reference dexamethasone at 10 μM item served as controls.
(§2) Following 24 h of stimulation, cell supernatants were collected for the NO, and cytokine measurements. Levels of 2 cytokines (TNF-α, IL-6) were measured by an immunosorbent assay (U-PLEX Custom […] Cytokine, Mesoscale Discovery) according to the instructions of the manufacturer and evaluated in comparison to calibration curves provided in the kit. […] Absorbance was measured at 570 nm. Nitrosative stress was evaluated in the study samples in comparison to a NaNO2 standard curve. […]

NO = assay: LPS stimulation of BV-2 microglia: NO (Griess reagent); type: cell-based, murine; conditions: between 0.3 and 3 μM, BV2, LPS 500 ng/ml, 24 h
Description: as §1, §2

phospho Tyr706/707 signal normalized to the TrkB (TrkB receptor): significant increase
phosphorylation of TrkB at Tyr residue 706/707 versus the vehicle (TrkB receptor; SND118 2 μM): increased slightly
SMILES: O=c1cc(-c2ccc(CCCC[P+](c3ccccc3)(c3ccccc3)c3ccccc3)cc2)oc2c(O)c(O)ccc12 [SND118, 4-[4-(7,8-dihydroxy-4-oxo-chromen-2-yl)phenyl]butyltriphenylphosphonium bromide]
release of L-lactate [1]: increased the release of L-lactate
phosphorylation of the TrkB receptor at sites Tyr 515 and Tyr 816 (TrkB receptor; 1 and 2 μM): induced statistically significant phosphorylation
apoptosis induced by MPP+ (YO-PRO-1) [2]: significantly inhibited apoptosis
level of IL-6 in response to LPS stimulation (IL-6): significantly decreased
level of NO in response to LPS stimulation (NO): significantly decreased

From patent US20220411448A1, “CHROMENE-4-ONE DERIVATIVES AS BRAIN-DERIVED NEUROTROPHIC FACTOR (BDNF) MIMETICS” (FLORATEK PHARMA AG, priority 2019, published 2022)
